Measured values as given in patent US20080138835A1 (priority 2004, published 2008).
In brackets after ≈: the same amount, converted by molar mass. Where two headings read alike, the source gives them in different places.

Experiments:
S. aureus RN4220 = experiment: microbe, parasite or virus in culture; type: cell-based; conditions: for MIC: Staphylococcus aureus
S. aureus [1] = type: cell-based
S. aureus [2] = experiment: microbe, parasite or virus in culture; type: cell-based; conditions: for MIC: Staphylococcus aureus
S. aureus [3] = experiment: microbe, parasite or virus in culture; type: cell-based; conditions: Staphylococcus aureus
[4] = tested on: staphylococci and streptococci; experiment: organism not typed; type: cell-based
staphylococci = conditions: cited from earlier work
S. aureus mutants = experiment: microbe, parasite or virus in culture; type: cell-based; conditions: Staphylococcus aureus, ATCC43300
H influenzae MetG = H influenzae MetG (Haemophilus influenzae, UniProt P43828); experiment: biochemical
H influenzae MetG, sequence (P43828 whole entry): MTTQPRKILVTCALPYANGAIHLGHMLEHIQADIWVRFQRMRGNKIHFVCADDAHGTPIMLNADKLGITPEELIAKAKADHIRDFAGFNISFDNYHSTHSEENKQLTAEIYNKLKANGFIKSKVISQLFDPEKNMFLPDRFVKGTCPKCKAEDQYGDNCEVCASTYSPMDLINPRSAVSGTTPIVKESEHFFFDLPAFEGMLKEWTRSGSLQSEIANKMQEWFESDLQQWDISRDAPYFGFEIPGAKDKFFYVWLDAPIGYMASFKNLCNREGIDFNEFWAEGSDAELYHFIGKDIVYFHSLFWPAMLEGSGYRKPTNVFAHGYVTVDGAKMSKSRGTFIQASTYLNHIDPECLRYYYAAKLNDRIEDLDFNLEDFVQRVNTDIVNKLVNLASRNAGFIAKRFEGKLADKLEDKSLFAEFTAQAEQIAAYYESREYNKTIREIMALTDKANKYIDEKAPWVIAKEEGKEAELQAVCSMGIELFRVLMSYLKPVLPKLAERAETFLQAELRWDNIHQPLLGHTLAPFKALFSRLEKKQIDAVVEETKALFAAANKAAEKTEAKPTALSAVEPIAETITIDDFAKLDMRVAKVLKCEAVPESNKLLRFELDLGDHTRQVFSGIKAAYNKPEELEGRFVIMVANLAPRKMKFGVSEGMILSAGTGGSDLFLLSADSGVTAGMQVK

S. aureus MetS = S. aureus MetS (Staphylococcus aureus, UniProt P67579); experiment: biochemical
S. aureus MetS, sequence (P67579 whole entry): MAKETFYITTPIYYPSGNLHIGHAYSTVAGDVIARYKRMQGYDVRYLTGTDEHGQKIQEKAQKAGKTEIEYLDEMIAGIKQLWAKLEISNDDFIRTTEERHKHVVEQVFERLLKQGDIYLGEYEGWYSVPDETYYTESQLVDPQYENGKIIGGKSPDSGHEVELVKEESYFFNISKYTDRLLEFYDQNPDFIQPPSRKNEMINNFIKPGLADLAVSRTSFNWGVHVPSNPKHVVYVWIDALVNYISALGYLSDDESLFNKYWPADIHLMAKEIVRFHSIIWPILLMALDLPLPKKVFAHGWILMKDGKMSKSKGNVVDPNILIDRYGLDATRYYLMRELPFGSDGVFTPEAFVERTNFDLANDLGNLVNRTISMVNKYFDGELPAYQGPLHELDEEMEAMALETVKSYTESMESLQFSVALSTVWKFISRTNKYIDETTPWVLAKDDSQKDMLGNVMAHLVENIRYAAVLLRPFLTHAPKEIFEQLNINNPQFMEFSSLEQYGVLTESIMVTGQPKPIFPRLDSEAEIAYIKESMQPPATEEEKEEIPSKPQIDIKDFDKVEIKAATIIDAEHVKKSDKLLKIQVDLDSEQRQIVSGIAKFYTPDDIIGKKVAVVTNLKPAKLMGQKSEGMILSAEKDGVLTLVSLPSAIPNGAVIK

E. coli MetG = E. coli MetG (Escherichia coli, UniProt P00959); experiment: biochemical
E. coli MetG, sequence (P00959 whole entry, looked up): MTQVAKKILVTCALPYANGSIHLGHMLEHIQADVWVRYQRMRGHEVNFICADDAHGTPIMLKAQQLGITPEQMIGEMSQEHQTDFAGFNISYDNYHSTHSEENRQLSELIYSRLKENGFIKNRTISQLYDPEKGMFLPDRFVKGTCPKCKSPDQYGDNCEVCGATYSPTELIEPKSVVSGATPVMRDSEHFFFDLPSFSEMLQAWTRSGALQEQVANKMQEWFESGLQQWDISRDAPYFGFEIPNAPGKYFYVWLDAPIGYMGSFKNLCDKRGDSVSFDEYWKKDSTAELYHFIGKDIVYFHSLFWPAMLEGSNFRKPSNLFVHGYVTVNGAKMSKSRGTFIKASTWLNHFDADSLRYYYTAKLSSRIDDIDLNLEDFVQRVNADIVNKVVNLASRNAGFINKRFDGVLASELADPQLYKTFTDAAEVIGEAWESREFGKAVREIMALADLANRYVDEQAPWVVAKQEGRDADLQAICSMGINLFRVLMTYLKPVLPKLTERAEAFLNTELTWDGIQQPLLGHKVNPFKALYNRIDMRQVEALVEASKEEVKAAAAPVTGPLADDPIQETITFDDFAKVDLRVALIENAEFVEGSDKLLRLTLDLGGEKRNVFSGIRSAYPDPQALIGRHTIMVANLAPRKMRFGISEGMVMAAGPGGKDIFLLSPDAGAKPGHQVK

S. pneumoniae MetS2 = S. pneumoniae MetS2 (Streptococcus pneumoniae, UniProt A2MSJ4); experiment: biochemical
S. pneumoniae MetS2, sequence (A2MSJ4 1-545): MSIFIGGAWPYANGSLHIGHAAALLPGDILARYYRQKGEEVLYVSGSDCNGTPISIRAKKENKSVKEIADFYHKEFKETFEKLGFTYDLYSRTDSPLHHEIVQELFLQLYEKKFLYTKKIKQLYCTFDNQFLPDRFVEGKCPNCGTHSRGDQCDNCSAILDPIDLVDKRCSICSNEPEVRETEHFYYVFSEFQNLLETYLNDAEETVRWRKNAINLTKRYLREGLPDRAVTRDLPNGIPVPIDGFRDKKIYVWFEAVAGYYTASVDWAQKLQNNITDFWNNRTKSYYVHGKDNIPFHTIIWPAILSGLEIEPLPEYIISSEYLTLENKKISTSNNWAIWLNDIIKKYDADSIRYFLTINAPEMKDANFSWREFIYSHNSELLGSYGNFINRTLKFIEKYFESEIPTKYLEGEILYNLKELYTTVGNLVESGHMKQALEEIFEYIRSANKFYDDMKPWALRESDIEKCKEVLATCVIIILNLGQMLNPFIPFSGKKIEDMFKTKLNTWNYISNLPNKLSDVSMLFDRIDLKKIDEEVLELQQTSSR

[5] = RN4220, pYH4 vector control, +aTc inducer
[6] = RN4220, pYH4 vector control, −aTc inducer
[7] = 1079077 (MRSA), 10^10 CFU, five days
[8] = ATCC 29213 (MSSA), 10^10 CFU, five days
[9] = ATCC 43300 (MRSA), 10^10 CFU, five days
[10] = LZ10 (MRSA), 10^10 CFU, five days
[11] = S. aureus, including MSSA and MRSA strains
[12] = ATCC 29213 / MSSA, read-out: MIC After 20 passages, S. aureus ATCC29213, MSSA, MupS
[13] = ATCC 29213 / MSSA, read-out: MIC Initial, S. aureus ATCC29213, MSSA, MupS
[14] = ATCC 43300 / MRSA, read-out: MIC After 20 passages, S. aureus ATCC43300, MRSA, MupS
[15] = MRSA / NRS 103, read-out: MIC After 20 passages, S. aureus NRS103, MRSA, MupS
[16] = MRSA / NRS 103, read-out: MIC Initial, S. aureus NRS103, MRSA, MupS
[17] = MRSA, read-out: MIC After 20 passages, S. aureus 10-420, MRSA, HL-MupR
[18] = MRSA, read-out: MIC After 20 passages, S. aureus 25-670, MRSA, HL-MupR
[19] = MRSA, read-out: MIC After 20 passages, S. aureus 31-1334, MRSA, LL-MupR
[20] = MRSA, read-out: MIC After 20 passages, S. aureus 87-2797, MRSA, HL-MupR
[21] = MRSA, read-out: MIC After 20 passages, S. aureus 1079077, MRSA, MupS
[22] = MRSA, read-out: MIC After 20 passages, S. aureus LZ1, MRSA, HL-MupR
[23] = MRSA, read-out: MIC After 20 passages, S. aureus LZ6, MRSA, HL-MupR
[24] = MRSA, read-out: MIC After 20 passages, S. aureus LZ10, MRSA, MupS
[25] = MRSA, read-out: MIC Initial, S. aureus 10-420, MRSA, HL-MupR
[26] = MRSA, read-out: MIC Initial, S. aureus 25-670, MRSA, HL-MupR
[27] = MRSA, read-out: MIC Initial, S. aureus 31-1334, MRSA, LL-MupR
[28] = MRSA, read-out: MIC Initial, S. aureus 87-2797, MRSA, HL-MupR
[29] = MRSA, read-out: MIC Initial, S. aureus 1079077, MRSA, MupS
[30] = MRSA, read-out: MIC Initial, S. aureus LZ1, MRSA, HL-MupR
[31] = MRSA, read-out: MIC Initial, S. aureus LZ6, MRSA, HL-MupR
[32] = MRSA, read-out: MIC Initial, S. aureus LZ10, MRSA, MupS
[33] = MSSA / NRS 107, read-out: MIC After 20 passages, S. aureus NRS107, MSSA, HL-MupR
[34] = MSSA / NRS 107, read-out: MIC Initial, S. aureus NRS107, MSSA, HL-MupR
[35] = MSSA, read-out: MIC After 20 passages, S. aureus 1079101, MSSA, HL-MupR
[36] = MSSA, read-out: MIC Initial, S. aureus 1079101, MSSA, HL-MupR

## CN[C@H](CC(C)C)C(=O)N[C@H]1C(=O)N[C@@H](CC(N)=O)C(=O)N[C@H]2C(=O)N[C@H]3C(=O)N[C@H](C(=O)N[C@H](C(=O)O)c4cc(O)cc(O)c4-c4cc3ccc4O)[C@H](O)c3ccc(c(Cl)c3)Oc3cc2cc(c3O[C@@H]2O[C@H](CO)[C@@H](O)[C@H](O)[C@H]2O[C@H]2C[C@](C)(N)[C@H](O)[C@H](C)O2)Oc2ccc(cc2Cl)[C@H]1O [Vancomycin]
S. aureus RN4220
  MIC change upon MRS overexpression: remained unchanged
S. aureus RN4220; RN4220, pYH4-MRS, +aTc inducer
  MIC: 0.5 µg/mL (≈ 0.345 µM)
S. aureus RN4220; RN4220, pYH4-MRS, −aTc inducer
  MIC: 0.5 µg/mL (≈ 0.345 µM)
S. aureus RN4220; [5]
  MIC: 1 µg/mL (≈ 0.69 µM)
S. aureus RN4220; [6]
  MIC: 1 µg/mL (≈ 0.69 µM)

## CO[C@@H]1[C@@H](OC(N)=O)[C@@H](O)[C@H](Oc2ccc3c(O)c(NC(=O)c4ccc(O)c(CC=C(C)C)c4)c(=O)oc3c2C)OC1(C)C [Novobiocin]
S. aureus RN4220
  MIC change upon MRS overexpression: remained unchanged
S. aureus RN4220; RN4220, pYH4-MRS, +aTc inducer
  MIC: 0.25 µg/mL (≈ 0.408 µM)
S. aureus RN4220; RN4220, pYH4-MRS, −aTc inducer
  MIC: 0.25 µg/mL (≈ 0.408 µM)
S. aureus RN4220; [5]
  MIC: 0.25 µg/mL (≈ 0.408 µM)
S. aureus RN4220; [6]
  MIC: 0.25 µg/mL (≈ 0.408 µM)

## C/C(=C\C(=O)OCCCCCCCCC(=O)O)C[C@@H]1OC[C@H](C[C@@H]2O[C@H]2[C@@H](C)[C@H](C)O)[C@@H](O)[C@H]1O [Mupirocin]
S. aureus [1]; [7]
  MPC: >32 µg/mL
S. aureus [1]; [8]
  MPC: 32 µg/mL
S. aureus [1]; [9]
  MPC: 32 µg/mL
S. aureus [1]; [10]
  MPC: >32 µg/mL
S. aureus [1]; [11]
  MPC: ≥ 32 µg/mL
S. aureus [2]; ATCC 29213 / MSSA
  MIC: 0.12 µg/mL (≈ 0.24 µM)
S. aureus [2]; ATCC 43300 / MRSA
  MIC: 0.12 µg/mL (≈ 0.24 µM)
S. aureus [3]; [12]
  MIC: 0.5 µg/mL (≈ 0.999 µM)
S. aureus [3]; [13]
  MIC: 0.06 µg/mL (≈ 0.12 µM)
S. aureus [3]; [14]
  MIC: 8 µg/mL (≈ 16 µM)
S. aureus [3]; ATCC 43300 / MRSA, read-out: MIC Initial, S. aureus ATCC43300, MRSA, MupS
  MIC: 0.06 µg/mL (≈ 0.12 µM)
S. aureus [3]; [15]
  MIC: 1 µg/mL (≈ 2 µM)
S. aureus [3]; [16]
  MIC: 0.25 µg/mL (≈ 0.499 µM)
S. aureus [3]; [17]
  MIC: 4100 µg/mL (≈ 8180 µM)
S. aureus [3]; [18]
  MIC: 4100 µg/mL (≈ 8180 µM)
S. aureus [3]; [19]
  MIC: 128 µg/mL (≈ 256 µM)
S. aureus [3]; [20]
  MIC: 4100 µg/mL (≈ 8180 µM)
S. aureus [3]; [21]
  MIC: 1 µg/mL (≈ 2 µM)
S. aureus [3]; [22]
  MIC: 4100 µg/mL (≈ 8180 µM)
S. aureus [3]; [23]
  MIC: 4100 µg/mL (≈ 8180 µM)
S. aureus [3]; [24]
  MIC: 2 µg/mL (≈ 3.99 µM)
S. aureus [3]; [25]
  MIC: 4100 µg/mL (≈ 8180 µM)
S. aureus [3]; [26]
  MIC: 2050 µg/mL (≈ 4090 µM)
S. aureus [3]; [27]
  MIC: 32 µg/mL (≈ 63.9 µM)
S. aureus [3]; [28]
  MIC: 2050 µg/mL (≈ 4090 µM)
S. aureus [3]; [29]
  MIC: 0.5 µg/mL (≈ 0.999 µM)
S. aureus [3]; [30]
  MIC: 4100 µg/mL (≈ 8180 µM)
S. aureus [3]; [31]
  MIC: 4100 µg/mL (≈ 8180 µM)
S. aureus [3]; [32]
  MIC: 0.25 µg/mL (≈ 0.499 µM)
S. aureus [3]; [33]
  MIC: 4100 µg/mL (≈ 8180 µM)
S. aureus [3]; [34]
  MIC: 4100 µg/mL (≈ 8180 µM)
S. aureus [3]; [35]
  MIC: 4100 µg/mL (≈ 8180 µM)
S. aureus [3]; [36]
  MIC: 4100 µg/mL (≈ 8180 µM)
[4]; mupirocin-susceptible strains
  MIC range after 20 passages: 0.5 to 8 µg/mL
  MIC range initial: 0.06 to 0.5 µg/mL
[4]; read-out: MIC after 20 passages
  MIC: 128 µg/mL (≈ 256 µM)
[4]; read-out: MIC initial
  MIC: 32 µg/mL (≈ 63.9 µM)
staphylococci; high-level mupirocin resistance
  MIC: > 256 µg/mL
staphylococci; low-level mupirocin resistance
  MIC: 8 to 256 µg/mL
S. aureus RN4220
  MIC change upon MRS overexpression: remained unchanged
S. aureus RN4220; RN4220, pYH4-MRS, +aTc inducer
  MIC: 0.06 µg/mL (≈ 0.12 µM)
S. aureus RN4220; RN4220, pYH4-MRS, −aTc inducer
  MIC: 0.06 µg/mL (≈ 0.12 µM)
S. aureus RN4220; [5]
  MIC: 0.06 µg/mL (≈ 0.12 µM)
S. aureus RN4220; [6]
  MIC: 0.06 µg/mL (≈ 0.12 µM)

## C=C(F)c1sc(CNCCCNc2cc(=O)c3ccccc3[nH]2)c(C)c1Br [Compound 1, N-(4-bromo-5-(1-fluorovinyl)-3-methylthiophen-2-ylmethyl)-N′-(1H-quinolin-4-one)propane-1,3-diamine]
S. aureus mutants
  MIC: 2 µg/mL (≈ 4.44 µM)
H influenzae MetG
  IC50: 25 nM
S. aureus [1]; [7]
  MPC: 32 µg/mL
S. aureus [1]; [8]
  MPC: 32 µg/mL
S. aureus [1]; [9]
  MPC: 32 µg/mL
S. aureus [1]; [10]
  MPC: 32 µg/mL
S. aureus [1]; [11]
  MPC: 32 µg/mL
S. aureus MetS
  IC50: < 1.9 nM
S. aureus [2]
  initial MIC range: 0.03 to 0.5 µg/mL
  MIC: 0.5 µg/mL (≈ 1.11 µM)
S. aureus [2]; ATCC 29213 / MSSA
  MIC: 0.03 µg/mL (≈ 0.0666 µM)
S. aureus [2]; ATCC 43300 / MRSA
  MIC: 0.06 µg/mL (≈ 0.133 µM)
S. aureus [3]; [12]
  MIC: 4 µg/mL (≈ 8.88 µM)
S. aureus [3]; [13]
  MIC: 0.06 µg/mL (≈ 0.133 µM)
S. aureus [3]; [14]
  MIC: 1 µg/mL (≈ 2.22 µM)
S. aureus [3]; [15]
  MIC: 1 µg/mL (≈ 2.22 µM)
S. aureus [3]; [16]
  MIC: 0.12 µg/mL (≈ 0.266 µM)
S. aureus [3]; [17]
  MIC: 8 µg/mL (≈ 17.8 µM)
S. aureus [3]; [18]
  MIC: 8 µg/mL (≈ 17.8 µM)
S. aureus [3]; [19]
  MIC: 8 µg/mL (≈ 17.8 µM)
S. aureus [3]; [20]
  MIC: 16 µg/mL (≈ 35.5 µM)
S. aureus [3]; [21]
  MIC: 16 µg/mL (≈ 35.5 µM)
S. aureus [3]; [22]
  MIC: 0.06 µg/mL (≈ 0.133 µM)
S. aureus [3]; [23]
  MIC: 2 µg/mL (≈ 4.44 µM)
S. aureus [3]; [24]
  MIC: 0.5 µg/mL (≈ 1.11 µM)
S. aureus [3]; [25]
  MIC: 0.06 µg/mL (≈ 0.133 µM)
S. aureus [3]; [26]
  MIC: 0.06 µg/mL (≈ 0.133 µM)
S. aureus [3]; [27]
  MIC: 0.03 µg/mL (≈ 0.0666 µM)
S. aureus [3]; [28]
  MIC: 0.03 µg/mL (≈ 0.0666 µM)
S. aureus [3]; [29]
  MIC: 0.25 µg/mL (≈ 0.555 µM)
S. aureus [3]; [30]
  MIC: 0.06 µg/mL (≈ 0.133 µM)
S. aureus [3]; [31]
  MIC: 0.06 µg/mL (≈ 0.133 µM)
S. aureus [3]; [32]
  MIC: 0.03 µg/mL (≈ 0.0666 µM)
S. aureus [3]; [33]
  MIC: 0.5 µg/mL (≈ 1.11 µM)
S. aureus [3]; [34]
  MIC: 0.015 µg/mL (≈ 0.0333 µM)
S. aureus [3]; [35]
  MIC: 16 µg/mL (≈ 35.5 µM)
S. aureus [3]; [36]
  MIC: 0.06 µg/mL (≈ 0.133 µM)
[4]; strains of Table 4
  MIC range after twenty serial passages: 0.06 to 16 µg/mL
[4]; strains of Table 4, before passages
  MIC initial range: 0.015 to 0.06 µg/mL
E. coli MetG
  IC50: 307 nM
S. pneumoniae MetS2
  IC50: > 500 nM
S. aureus RN4220; RN4220 (pYH4-MRS)
  shift in the MIC upon induction of MRS expression: 8 fold
S. aureus RN4220; RN4220, pYH4-MRS, +aTc inducer
  MIC: 1 µg/mL (≈ 2.22 µM)
S. aureus RN4220; RN4220, pYH4-MRS, −aTc inducer
  MIC: 0.12 µg/mL (≈ 0.266 µM)
S. aureus RN4220; [5]
  MIC: 0.008 µg/mL (≈ 0.0178 µM)
S. aureus RN4220; [6]
  MIC: 0.008 µg/mL (≈ 0.0178 µM)
